Literature values as cited in patent US20220370316A1, “BIOCIDE PRODUCT OF BROAD, CONTINUOUS AND PROLONGUED EFFECT BASED ON ETHANOL, BENZALKONIUM CHLORIDE AND COPPER NANOPARTICLES” (priority 2021, published 2022).

Legend:
[1] = after topical application
[2] = system: cutaneous bacteria; details: ethanol at 70% concentration, two minutes, skin kept in contact with the alcohol without drying

Alkyl-benzyl-dimethyl ammonium chloride [Benzalkonium chloride]
time range of effectivity [1]: ≤ 12 h

CCO [Ethanol, ethanol]
cutaneous bacteria destroyed [2]: approximately 90%
